Earlier results as cited in US20120172289A1, “MULTIFUNCTIONAL GLYCOPEPTIDE ANTIBIOTIC DERIVATIVES FOR FLUORESCENT IMAGING AND PHOTOACTIVE ANTIMICROBIAL THERAPY” (NANYANG TECHNOLOGICAL UNIVERSITY, priority 2010, published 2012).

System: D-Ala-D-Lac
Details: mutation of peptidoglycan sequence in VRE

For `CN[C@H](CC(C)C)C(=O)N[C@H]1C(=O)N[C@@H](CC(N)=O)C(=O)N[C@H]2C(=O)N[C@H]3C(=O)N[C@H](C(=O)N[C@H](C(=O)O)c4cc(O)cc(O)c4-c4cc3ccc4O)[C@H](O)c3ccc(c(Cl)c3)Oc3cc2cc(c3O[C@@H]2O[C@H](CO)[C@@H](O)[C@H](O)[C@H]2O[C@H]2C[C@](C)(N)[C@H](O)[C@H](C)O2)Oc2ccc(cc2Cl)[C@H]1O` [Vancomycin], the “decrease of binding affinity, D-Ala-D-Ala to D-Ala-D-Lac” value is given as ~10^3 times.
